Test results as given in paper PMC12169614, “Exploring Long Arm Amide-Linked Side Chains in the Design of Antifungal Azole Inhibitors of Sterol 14α-Demethylase (CYP51)” (Journal of Medicinal Chemistry, 2025).

What was measured:
wild-type CaCYP51 = wild-type CaCYP51 (Candida albicans, UniProt P10613); test: Reconstituted CYP51 activity assay, wild type; type: biochemical, C. albicans; conditions: 1 μM CaCyp51, 50 μM lanosterol; duplicate, mean ± SD
Experimental: (§1) The reconstituted CYP51 assay previously described contained 1 μM CaCyp51, 2 μM Homo sapiens cytochrome P450 reductase and 50 μM lanosterol in a final volume of 500 μL. After the addition of azole in DMSO (2.5 μL), reactions were incubated at 37 °C for 10 min prior to initiation by the addition of 100 μL 20 mM β-NADPH-Na4. Sterol substrates and products were extracted with ethyl acetate, derivatized with N,O-bis(trimethylsilyl)-trifluoroacetamide (BSTFA)–trimethylchlorosilane (TMCS) (99:1) in the presence of anhydrous pyridine, and analyzed by GC/MS as described previously. IC50 determinations were performed in duplicate. Nonlinear regression of inhibitor concentration vs normalized response was calculated by GraphPad Prism 10.4.0 for Windows (GraphPad Software, Boston, Massachusetts, USA, www.graphpad.com).

CaCYP51 Y132H + K143R = CaCYP51 Y132H + K143R (Candida albicans, UniProt P10613, K143R/Y132H); test: Reconstituted CYP51 activity assay, Y132H + K143R; type: biochemical, C. albicans; conditions: 1 μM CaCyp51, 50 μM lanosterol; duplicate, mean ± SD
Chain of CaCYP51 Y132H + K143R (P10613 whole entry Y132H/K143R): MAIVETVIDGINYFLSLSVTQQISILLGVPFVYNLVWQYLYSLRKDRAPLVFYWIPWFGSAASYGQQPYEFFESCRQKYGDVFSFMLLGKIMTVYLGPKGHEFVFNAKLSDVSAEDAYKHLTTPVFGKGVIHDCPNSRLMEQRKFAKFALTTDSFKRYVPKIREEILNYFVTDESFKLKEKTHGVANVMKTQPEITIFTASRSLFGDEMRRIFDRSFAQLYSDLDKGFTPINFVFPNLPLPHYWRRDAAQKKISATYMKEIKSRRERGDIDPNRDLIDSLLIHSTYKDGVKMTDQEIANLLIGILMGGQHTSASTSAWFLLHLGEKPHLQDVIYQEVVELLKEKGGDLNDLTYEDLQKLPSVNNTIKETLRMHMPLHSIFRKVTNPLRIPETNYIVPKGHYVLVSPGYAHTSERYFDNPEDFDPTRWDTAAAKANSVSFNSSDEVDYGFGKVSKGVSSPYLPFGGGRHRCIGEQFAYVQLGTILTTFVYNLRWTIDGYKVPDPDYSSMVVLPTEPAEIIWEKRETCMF
Experimental: as §1

CaCYP51 Y132F = CaCYP51 Y132F (Candida albicans, UniProt P10613, Y132F); conditions: footnote b; ref number not given; cited from earlier work
Chain of CaCYP51 Y132F (P10613 whole entry Y132F, the tested form may be a part): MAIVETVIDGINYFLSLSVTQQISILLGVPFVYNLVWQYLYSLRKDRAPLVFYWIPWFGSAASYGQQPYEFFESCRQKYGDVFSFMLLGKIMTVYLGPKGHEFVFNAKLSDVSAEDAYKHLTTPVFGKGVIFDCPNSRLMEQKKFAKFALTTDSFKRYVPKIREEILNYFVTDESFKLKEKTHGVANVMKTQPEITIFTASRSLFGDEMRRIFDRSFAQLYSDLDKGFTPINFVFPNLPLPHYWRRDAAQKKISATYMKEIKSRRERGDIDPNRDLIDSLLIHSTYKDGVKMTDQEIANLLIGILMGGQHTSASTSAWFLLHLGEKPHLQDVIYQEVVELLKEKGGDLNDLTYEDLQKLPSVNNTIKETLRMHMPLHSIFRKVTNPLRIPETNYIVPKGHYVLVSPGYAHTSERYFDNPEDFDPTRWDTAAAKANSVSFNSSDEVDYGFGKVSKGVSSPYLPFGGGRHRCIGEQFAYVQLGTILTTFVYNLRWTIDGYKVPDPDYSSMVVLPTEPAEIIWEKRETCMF

[1] = system: Y2411 azole sensitive control strain; test: Agarose (disk) diffusion assay, strain Y2411; type: cell-based, S. cerevisiae; conditions: 10 nmol/disk, 30 °C, 48 h
From the text: (§2) Final compounds were screened as racemic mixtures using agarose diffusion assays to visualize their inhibitory activity against a panel of recombinant S. cerevisiae strains i.e., S. cerevisiae strains expressing control levels of wild-type CYP51 (ScCYP51), overexpressed wild-type ScCYP51, overexpressed azole-resistant ScCYP51 Y140F/H mutations and overexpressed C. albicans efflux pumps MDR1a or CDR1B (Figure and Table S1).
(§3) The susceptibilities of S. cerevisiae and Candida species strains to azole compounds were observed as zones of growth inhibition in agarose diffusion assays. The disk diffusion assays were carried out as described by Keniya et al. Complete supplement mixture (CSM) agarose (0.6% agarose [wt/vol]; 20 mL of synthetic defined medium (SD); pH 6.8–7) was solidified in a rectangular Petri dish which was overlaid with CSM agarose (0.6% [wt/vol]; 5 mL; pH 6.8–7) seeded with yeast cells at an optical density (OD600) of 0.008 (118,000 cells per 1 mL of overlay). Azole compounds (10 nmol/disk) were applied to sterile BBL paper disks (Becton Dickinson Co., Sparks, MD) and placed on solidified overlays. Cell growth was assessed after incubation at 30 °C for 48 h.

[2] = system: Y2300 ScCYP51 overexpressed; test: Agarose (disk) diffusion assay, strain Y2300; type: cell-based, S. cerevisiae; conditions: 10 nmol/disk, 30 °C, 48 h
From the text: as §2, §3

[3] = system: Y2301 ScCYP51 Y140F mutant; test: Agarose (disk) diffusion assay, strain Y2301; type: cell-based, S. cerevisiae; conditions: 10 nmol/disk, 30 °C, 48 h
From the text: as §2, §3

[4] = system: Y2513 ScCYP51 Y140H mutant; test: Agarose (disk) diffusion assay, strain Y2513; type: cell-based, S. cerevisiae; conditions: 10 nmol/disk, 30 °C, 48 h
From the text: as §2, §3

[5] = system: Y525 MFS efflux pump CaMDR1a overexpressed; test: Agarose (disk) diffusion assay, strain Y525; type: cell-based, S. cerevisiae; conditions: 10 nmol/disk, 30 °C, 48 h
From the text: as §2, §3

[6] = system: Y570 ABC efflux pump CaCDR1B overexpressed; test: Agarose (disk) diffusion assay, strain Y570; type: cell-based, S. cerevisiae; conditions: 10 nmol/disk, 30 °C, 48 h
From the text: as §2, §3

Y2411 Endog. ScCYP51 = test: MIC80 determination, strain Y2411; type: cell-based, S. cerevisiae; conditions: Saccharomyces cerevisiae
Experimental: (§4) Cells were seeded at an OD600 nm of 0.005 (1.5 × 10^4 CFU), and the plates were incubated at 30 °C with shaking at 200 rpm for 48 h for S. cerevisiae strains and 24 h for C. albicans . Cell growth was assessed by measuring the OD600 nm using a Synergy 2 multimode plate reader (BioTek Instruments, VT, USA). Each MIC80 was determined using triplicate measurements for pools of 4 clones of each strain in three separate experiments.

Y2300 OE ScCYP51 = test: MIC80 determination, strain Y2300; type: cell-based, S. cerevisiae; conditions: Saccharomyces cerevisiae
Experimental: as §4

Y2301 OE ScCYP51 Y140F = test: MIC80 determination, strain Y2301; type: cell-based, S. cerevisiae; conditions: Saccharomyces cerevisiae
Experimental: as §4

Y2513 OE ScCYP51 Y140H = test: MIC80 determination, strain Y2513; type: cell-based, S. cerevisiae; conditions: Saccharomyces cerevisiae
Experimental: as §4

Y2459 OE CaCYP51 CaCpr = test: MIC80 determination, strain Y2459; type: cell-based, S. cerevisiae
Experimental: as §4

Y525 OE CaMDR1a = test: MIC80 determination, strain Y525; type: cell-based, S. cerevisiae
Experimental: as §4

Y570 OE CaCDR1B = test: MIC80 determination, strain Y570; type: cell-based, S. cerevisiae
Experimental: as §4

Y71 SC5314 = test: MIC80 determination, C. albicans clinical isolate Y71 SC5314; type: cell-based; conditions: Candida albicans
Experimental: as §4

Y1 = test: MIC80 determination, C. albicans clinical isolate Y1; type: cell-based; conditions: Candida albicans, pH 7, 24 h
Experimental: as §4

Y610 FHB1 = test: MIC80 determination, C. albicans clinical isolate Y610 FHB1; type: cell-based; conditions: Candida albicans; C. albicans clinical isolate Y610 FHB1 (weakly expresses CaCDR1); pH 7, 24 h
Experimental: as §4

Y611 FHB3 = test: MIC80 determination, C. albicans clinical isolate Y611 FHB3; type: cell-based; conditions: Candida albicans, 24 h, pH 7
Experimental: as §4

Y2721 OE CpCYP51 = test: MIC80 determination, strain Y2721; type: cell-based, S. cerevisiae
Experimental: as §4

Y2716 OE CpCYP51 Y132F = test: MIC80 determination, strain Y2716; type: cell-based, S. cerevisiae
Experimental: as §4

Y2374 OE CgCYP51 = test: MIC80 determination, strain Y2374; type: cell-based, S. cerevisiae; conditions: Saccharomyces cerevisiae
Experimental: as §4

Y433 OE CgCDR1 = test: MIC80 determination, strain Y433; type: cell-based, S. cerevisiae; conditions: Saccharomyces cerevisiae
Experimental: as §4

2711 CnCYP51 OE CnCPR = test: MIC80 determination, strain 2711; type: cell-based, S. cerevisiae
Experimental: as §4

Y2649 OE CYP51 F1 RaCPR = test: MIC80 determination, strain Y2649; type: cell-based, S. cerevisiae
Experimental: as §4

Y2651 OE CYP51 F5 RaCPR = test: MIC80 determination, strain Y2651; type: cell-based, S. cerevisiae; conditions: Saccharomyces cerevisiae
Experimental: as §4

[7] = system: Y2746 OE AfCYP51A AfCPR AfERG6; test: MIC80 determination, strain Y2746; type: cell-based, S. cerevisiae; conditions: Saccharomyces cerevisiae
Experimental: as §4

[8] = system: Y2747 OE AfCYP51B AfCPR AfERG6; test: MIC80 determination, strain Y2747; type: cell-based, S. cerevisiae
Experimental: as §4

CYP3A4 = CYP3A4 (Homo sapiens, UniProt P08684); parameters: method as in numbers not given; conditions: literature values for azole antifungals; ref numbers not given; cited from earlier work
Chain of CYP3A4 (P08684 whole entry): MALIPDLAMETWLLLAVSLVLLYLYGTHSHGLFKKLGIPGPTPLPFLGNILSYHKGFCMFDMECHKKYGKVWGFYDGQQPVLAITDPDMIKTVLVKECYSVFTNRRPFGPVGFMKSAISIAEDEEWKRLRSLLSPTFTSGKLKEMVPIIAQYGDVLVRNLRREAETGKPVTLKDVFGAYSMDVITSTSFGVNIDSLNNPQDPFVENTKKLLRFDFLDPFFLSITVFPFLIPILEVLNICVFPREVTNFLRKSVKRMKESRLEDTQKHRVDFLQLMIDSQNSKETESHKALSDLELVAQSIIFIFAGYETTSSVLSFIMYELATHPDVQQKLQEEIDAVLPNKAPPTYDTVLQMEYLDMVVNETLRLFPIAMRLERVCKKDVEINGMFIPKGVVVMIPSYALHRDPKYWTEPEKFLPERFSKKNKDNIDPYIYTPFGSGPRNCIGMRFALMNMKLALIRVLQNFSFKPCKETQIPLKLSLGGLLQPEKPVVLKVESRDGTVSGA

[9] = Saccharomyces cerevisiae, 48 h, pH 6.8

Chain of wild-type CaCYP51 (P10613 whole entry): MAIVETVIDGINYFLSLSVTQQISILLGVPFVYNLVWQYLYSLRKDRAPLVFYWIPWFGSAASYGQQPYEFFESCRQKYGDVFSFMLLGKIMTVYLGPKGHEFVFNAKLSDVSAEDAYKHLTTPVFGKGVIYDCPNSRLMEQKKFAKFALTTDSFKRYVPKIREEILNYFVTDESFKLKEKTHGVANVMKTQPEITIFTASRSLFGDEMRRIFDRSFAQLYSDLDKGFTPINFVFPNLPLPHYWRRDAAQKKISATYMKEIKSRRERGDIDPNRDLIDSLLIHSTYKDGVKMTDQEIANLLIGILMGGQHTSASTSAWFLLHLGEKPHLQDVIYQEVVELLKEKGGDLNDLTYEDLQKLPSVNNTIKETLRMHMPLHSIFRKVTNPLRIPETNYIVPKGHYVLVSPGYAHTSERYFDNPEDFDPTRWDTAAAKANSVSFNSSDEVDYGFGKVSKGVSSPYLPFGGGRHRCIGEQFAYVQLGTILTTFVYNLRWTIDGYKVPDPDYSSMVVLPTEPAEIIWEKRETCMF

## OC(Cn1cncn1)(Cn1cncn1)c1ccc(F)cc1F [FLC, fluconazole, reference compound]
wild-type CaCYP51
  IC50: 0.335 ± 0.017 µM
CaCYP51 Y132H + K143R
  IC50: 25.7 ± 3.55 µM
CaCYP51 Y132F
  IC50: 0.606 ± 0.066 µM

## O=C(Nc1ccc(CNC(=O)C(Cn2cncn2)c2ccc(F)cc2F)cc1)c1cccnc1 (centres unmarked) [Compound 47, N-(4-((2-(2,4-Difluorophenyl)-3-(1H-1,2,4-triazol-1-yl)propanamido)methyl)phenyl)nicotinamide]
[1]
  zone of growth inhibition (inhibitory activity in words): poorly inhibited
[2]
  zone of growth inhibition (inhibitory activity in words): did not inhibit

## O=C(Nc1ccc(CNC(=O)C(Cn2cncn2)c2ccc(F)cc2F)cc1)c1ccc(Cl)cc1 (centres unmarked) [Compound 44, 4-Chloro-N-(4-((2-(2,4-difluorophenyl)-3-(1H-1,2,4-triazol-1-yl)propanamido)methyl)phenyl)benzamide]
[1]
  zone of growth inhibition (inhibitory activity in words): strongly inhibited
[2]
  zone of growth inhibition (inhibitory activity in words): strongly inhibited
[3]
  zone of growth inhibition (inhibitory activity in words): reduced activity
[4]
  zone of growth inhibition (inhibitory activity in words): reduced activity
[5]
  zone of growth inhibition (inhibitory activity in words): retained some inhibitory activity
[6]
  zone of growth inhibition (inhibitory activity in words): not the CaCDR1B expressing strain

## O=C(NCC(O)(Cn1cncn1)c1ccc(F)cc1F)c1ccc2cc(F)ccc2c1 (centres unmarked) [Compound 14, N-(2-(2,4-Difluorophenyl)-2-hydroxy-3-(1H-1,2,4-triazol-1-yl)propyl)-6-fluoro-2-naphthamide]
Y2411 Endog. ScCYP51; strain Y2411 Endog. ScCYP51, SD pH 6.8, 30 °C, 48 h
  MIC80: 0.015 ± 0.003 µM
Y2411 Endog. ScCYP51; supplement csv, read-out: MIC (nM) S. cerevisiae Y2411
  MIC: 15 ± 3 nM
Y2300 OE ScCYP51; 48 h, pH 6.8
  MIC80: 0.048 ± 0.004 µM
Y2300 OE ScCYP51; read-out: MIC (nM) S. cerevisiae Y2300
  MIC: 48 ± 4 nM
Y2301 OE ScCYP51 Y140F; 48 h, pH 6.8
  MIC80: 0.326 ± 0.048 µM
Y2301 OE ScCYP51 Y140F; read-out: MIC (nM) S. cerevisiae Y2301
  MIC: 326 ± 48 nM
Y2513 OE ScCYP51 Y140H; 48 h, pH 6.8
  MIC80: 0.632 ± 0.123 µM
Y2513 OE ScCYP51 Y140H; read-out: MIC (nM) S. cerevisiae Y2513
  MIC: 632 ± 123 nM
Y2459 OE CaCYP51 CaCpr; [9]
  MIC80: 0.054 ± 0.021 µM
Y2459 OE CaCYP51 CaCpr; read-out: MIC (nM) C. albicans model Y2459
  MIC: 54 ± 21 nM
Y525 OE CaMDR1a; [9]
  MIC80: > 1 µM
Y525 OE CaMDR1a; read-out: MIC (nM) C. albicans model Y525
  MIC: > 1000 nM
Y570 OE CaCDR1B; Candida albicans, read-out: MIC (nM) C. albicans model Y570
  MIC: 33500 nM
Y570 OE CaCDR1B; [9]
  MIC80: 33.5 µM
Y71 SC5314; SC5314, supplement csv
  MIC: 18 nM
Y71 SC5314; C. albicans clinical isolate Y71 SC5314, pH 7, 24 h
  MIC80: 0.018 µM
Y1
  MIC80: 0.01 µM
Y610 FHB1
  MIC80: 0.075 µM
Y611 FHB3
  MIC80: 2.4 µM
Y2721 OE CpCYP51; Saccharomyces cerevisiae
  MIC80: 0.024 µM
Y2721 OE CpCYP51; read-out: MIC (nM) C. parapsilosis model Y2721
  MIC: 24 nM
Y2716 OE CpCYP51 Y132F; MIC80 Y2716 versus Y2721
  increase in resistance owing to the CpCYP51 Y132F mutation: > 19 fold
Y2716 OE CpCYP51 Y132F; Saccharomyces cerevisiae
  MIC80: 1 µM
Y2374 OE CgCYP51
  MIC80: 0.047 ± 0.006 µM
Y2374 OE CgCYP51; read-out: MIC (nM) C. glabrate model Y2374
  MIC: 47 ± 6 nM
Y433 OE CgCDR1
  MIC80: 9.2 ± 0.707 µM
2711 CnCYP51 OE CnCPR; Saccharomyces cerevisiae
  MIC80: 0.005 µM
2711 CnCYP51 OE CnCPR; read-out: MIC (nM) C. neoformans model Y2711
  MIC: 5 nM
Y2649 OE CYP51 F1 RaCPR; Rhizopus arrhizus, read-out: MIC (nM) R. arrhizus model Y2649
  MIC: 83 nM
Y2649 OE CYP51 F1 RaCPR; Saccharomyces cerevisiae
  MIC80: 0.083 µM
Y2651 OE CYP51 F5 RaCPR
  MIC80: 3.5 µM
[7]
  MIC80: > 15 µM
[8]; Aspergillus fumigatus, read-out: MIC (nM) A. fumigatus model Y2747
  MIC: 300 nM
[8]; Saccharomyces cerevisiae
  MIC80: 0.3 µM
[3]
  zone of growth inhibition (inhibitory activity in words): showed activity
[4]
  zone of growth inhibition (inhibitory activity in words): showed activity
[5]
  zone of growth inhibition (inhibitory activity in words): reduced effect
[6]
  zone of growth inhibition (inhibitory activity in words): no effect

## O[C@@](Cn1cnnn1)(c1ccc(F)cc1F)C(F)(F)c1ccc(-c2ccc(OCC(F)(F)F)cc2)cn1 [VT-1161, Oteseconazole]
CYP3A4
  IC50: 140 µM
